In US20130137772A1, “HYDROXYPOLYAMINE SALTS” (priority 2011, published 2013):
Where “and” joins values, the source holds several entries; their conditions need not be identical. Equal values may be shown once.

Test: Tissue distribution and metabolism: polyamine content of kidney, liver and pancreas via HPLC
Assay type: in vivo, Female CD-1 mice
Description: The tissue distribution and metabolism of DEHSPM, (HO)2DEHSPM HCl Salt and (HO)2DEHSPM Mesylate Salt in various organs were evaluated utilizing the following protocol:
Tissue Distribution and Metabolism of DEHSPM, (HO)2DEHSPM HCl Salt and (HO)2DEHSPM Mesylate Salt
• 1) DEHSPM, (HO)2DEHSPM HCl salt, and (HO)2DEHSPM mesylate salt were dissolved in sterile normal saline; the pH was not adjusted. • 2) Female CD-1 mice were given the drugs at equimolar dosages intraperitoneally once daily for 5 days. • 3) The animals, n=3-4 per group, were euthanized 4, 8, or 24 h post-last dose. • 4) The kidney, liver, and pancreas were removed and assessed for their polyamine content via HPLC analysis. • 5) The polyamine concentration data (mean±STD) are expressed as nmol/g wet weight of tissue. SPM, spermine; SPD, spermidine; PUT, putrescine; N.D., not determined. • 6) A one-tailed t test assuming unequal variance was performed on the tissue polyamine concentration data. A value of p<0.05 was considered significant.

[1] = kidney, 4 h post-last dose, HCl salt 20 mg/kg/d IP x 5 d
[2] = kidney, 8 h post-last dose, HCl salt 20 mg/kg/d IP x 5 d
[3] = kidney, 24 h post-last dose, HCl salt 20 mg/kg/d IP x 5 d
[4] = liver, 4 h post-last dose, HCl salt 20 mg/kg/d IP x 5 d
[5] = liver, 8 h post-last dose, HCl salt 20 mg/kg/d IP x 5 d
[6] = liver, 24 h post-last dose, HCl salt 20 mg/kg/d IP x 5 d
[7] = liver, 24 h post-last dose, HCl salt 20 mg/kg/d IP x 5 d, listed as (HO)2DEHSPM•4HCl Salt
[8] = pancreas, 4 h post-last dose, HCl salt 20 mg/kg/d IP x 5 d
[9] = pancreas, 8 h post-last dose, HCl salt 20 mg/kg/d IP x 5 d
[10] = pancreas, 24 h post-last dose, HCl salt 20 mg/kg/d IP x 5 d
[11] = kidney, 4 h post-last dose, mesylate salt 30.3 mg/kg/d IP x 5 d
[12] = kidney, 8 h post-last dose, mesylate salt 30.3 mg/kg/d IP x 5 d
[13] = kidney, 24 h post-last dose, mesylate salt 30.3 mg/kg/d IP x 5 d
[14] = liver, 4 h post-last dose, mesylate salt 30.3 mg/kg/d IP x 5 d
[15] = liver, 8 h post-last dose, mesylate salt 30.3 mg/kg/d IP x 5 d
[16] = liver, 24 h post-last dose, mesylate salt 30.3 mg/kg/d IP x 5 d
[17] = pancreas, 4 h post-last dose, mesylate salt 30.3 mg/kg/d IP x 5 d
[18] = pancreas, 8 h post-last dose, mesylate salt 30.3 mg/kg/d IP x 5 d
[19] = pancreas, 24 h post-last dose, mesylate salt 30.3 mg/kg/d IP x 5 d

With `CCNCCC(O)CNCCCCNCC(O)CCNCC.Cl.Cl.Cl.Cl` (stereo not shown) [(HO)2DEHSPM HCl Salt] the “(HO)2DEHSPM 4HCl Salt concentration” value [1] was 852 ± 202 nmol/g wet weight of tissue, the “(HO)2HSPM concentration” value [1] was 50 ± 19 nmol/g wet weight of tissue and the PUT concentration [1] was 31 ± 27 nmol/g wet weight of tissue. For the same compound, the SPD concentration [1] was 327 ± 86 nmol/g wet weight of tissue, the SPM concentration [1] was 544 nmol/g wet weight of tissue and the SPM concentration (kidney, 4 h post-last dose, HCl salt 20 mg/kg/d IP x 5 d, listed as (HO)2DEHSPM•4HCl Salt) was 544 ± 14 nmol/g wet weight of tissue. For the same compound, the “(HO)2DEHSPM 4HCl Salt concentration” value [2] was 871 ± 85 nmol/g wet weight of tissue, the “(HO)2HSPM concentration” value [2] was 70 ± 6 nmol/g wet weight of tissue and the PUT concentration [2] was 29 ± 5 nmol/g wet weight of tissue. For the same compound, the SPD concentration [2] was 275 ± 16 nmol/g wet weight of tissue, the SPM concentration [2] was 641 nmol/g wet weight of tissue and the SPM concentration (kidney, 8 h post-last dose, HCl salt 20 mg/kg/d IP x 5 d, listed as (HO)2DEHSPM•4HCl Salt) was 641 ± 33 nmol/g wet weight of tissue. The “(HO)2DEHSPM 4HCl Salt concentration” value [3] was 618 ± 82 nmol/g wet weight of tissue, the “(HO)2HSPM concentration” value [3] was 76 ± 7 nmol/g wet weight of tissue and the PUT concentration [3] was 28 ± 6 nmol/g wet weight of tissue. The SPD concentration [3] was 304 ± 30 nmol/g wet weight of tissue, the SPM concentration [3] was 588 nmol/g wet weight of tissue and the SPM concentration (kidney, 24 h post-last dose, HCl salt 20 mg/kg/d IP x 5 d, listed as (HO)2DEHSPM•4HCl Salt) was 588 ± 5 nmol/g wet weight of tissue. The “(HO)2DEHSPM 4HCl Salt concentration” value [4] was 248 ± 17 nmol/g wet weight of tissue, the “(HO)2HSPM concentration” value [4] was 70 ± 5 nmol/g wet weight of tissue and the PUT concentration [4] was 0 ± 0 nmol/g wet weight of tissue. For the same compound, the SPD concentration [4] was 1050 ± 9 nmol/g wet weight of tissue, the SPM concentration [4] was 875 nmol/g wet weight of tissue and the SPM concentration (liver, 4 h post-last dose, HCl salt 20 mg/kg/d IP x 5 d, listed as (HO)2DEHSPM•4HCl Salt) was 875 ± 128 nmol/g wet weight of tissue. For the same compound, the “(HO)2DEHSPM 4HCl Salt concentration” value [5] was 228 ± 55 nmol/g wet weight of tissue, the “(HO)2HSPM concentration” value [5] was 103 ± 14 nmol/g wet weight of tissue and the PUT concentration [5] was 20 ± 17 nmol/g wet weight of tissue. The SPD concentration [5] was 1175 ± 190 nmol/g wet weight of tissue, the SPM concentration [5] was 1071 nmol/g wet weight of tissue and the SPM concentration (liver, 8 h post-last dose, HCl salt 20 mg/kg/d IP x 5 d, listed as (HO)2DEHSPM•4HCl Salt) was 1071 ± 7 nmol/g wet weight of tissue. The “(HO)2DEHSPM 4HCl Salt concentration” value [6] was 136 ±50 nmol/g wet weight of tissue, the “(HO)2HSPM concentration” value [6] was 102 ± 13 nmol/g wet weight of tissue and the PUT concentration [6] was 7 ± 14 nmol/g wet weight of tissue. For the same compound, the SPD concentration [6] was 884 ± 156 nmol/g wet weight of tissue, the SPM concentration [6] was 837 nmol/g wet weight of tissue and the “(HO)2DEHSPM 4HCl Salt concentration” value [7] was 136 ± 50 nmol/g wet weight of tissue. For the same compound, the SPM concentration [7] was 837 ± 13 nmol/g wet weight of tissue, the “(HO)2DEHSPM 4HCl Salt concentration” value [8] was 217 ± 27 nmol/g wet weight of tissue and the “(HO)2HSPM concentration” value [8] was 56 ± 11 nmol/g wet weight of tissue. The PUT concentration [8] was 32 ± 3 nmol/g wet weight of tissue, the SPD concentration [8] was 5868 ± 505 nmol/g wet weight of tissue and the SPM concentration [8] was 1153 nmol/g wet weight of tissue and 1153 ± 159 nmol/g wet weight of tissue. The “(HO)2DEHSPM 4HCl Salt concentration” value [9] was 223 ± 54 nmol/g wet weight of tissue, the “(HO)2HSPM concentration” value [9] was 60 ± 9 nmol/g wet weight of tissue and the PUT concentration [9] was 50 ± 7 nmol/g wet weight of tissue. For the same compound, the SPD concentration [9] was 6343 ± 596 nmol/g wet weight of tissue, the SPM concentration [9] was 1476 nmol/g wet weight of tissue and 1476 ± 101 nmol/g wet weight of tissue and the “(HO)2DEHSPM 4HCl Salt concentration” value [10] was 209 ± 37 nmol/g wet weight of tissue. The “(HO)2HSPM concentration” value [10] was 58 ± 14 nmol/g wet weight of tissue, the PUT concentration [10] was 36 ± 5 nmol/g wet weight of tissue and the SPD concentration [10] was 6386 ± 309 nmol/g wet weight of tissue. For the same compound, the SPM concentration [10] was 1177 nmol/g wet weight of tissue and 1177 ± 161 nmol/g wet weight of tissue.

For `CCNCCC(O)CNCCCCNCC(O)CCNCC.CS(=O)(=O)O.CS(=O)(=O)O.CS(=O)(=O)O.CS(=O)(=O)O` (stereo not shown) [(HO)2DEHSPM Mesylate Salt], the “(HO)2DEHSPM Mesylate concentration” value [11] was 541 ± 65 nmol/g wet weight of tissue, the “(HO)2HSPM concentration” value [11] was 77 ± 6 nmol/g wet weight of tissue and the PUT concentration [11] was 7 ± 12 nmol/g wet weight of tissue. The SPD concentration [11] was 404 ± 24 nmol/g wet weight of tissue, the SPM concentration [11] was 680 nmol/g wet weight of tissue and 680 ± 15 nmol/g wet weight of tissue and the “(HO)2DEHSPM Mesylate concentration” value [12] was 533 ± 84 nmol/g wet weight of tissue. The “(HO)2HSPM concentration” value [12] was 89 ± 14 nmol/g wet weight of tissue, the PUT concentration [12] was 0 ± 0 nmol/g wet weight of tissue and the SPD concentration [12] was 265 ± 5 nmol/g wet weight of tissue. The SPM concentration [12] was 655 nmol/g wet weight of tissue and 655 ± 41 nmol/g wet weight of tissue, the “(HO)2DEHSPM Mesylate concentration” value [13] was 360 ± 43 nmol/g wet weight of tissue and the “(HO)2HSPM concentration” value [13] was 97 ± 5 nmol/g wet weight of tissue. The PUT concentration [13] was 26 ± 5 nmol/g wet weight of tissue, the SPD concentration [13] was 239 ± 9 nmol/g wet weight of tissue and the SPM concentration [13] was 601 nmol/g wet weight of tissue and 601 ± 29 nmol/g wet weight of tissue. The “(HO)2DEHSPM Mesylate concentration” value [14] was 168 ± 32 nmol/g wet weight of tissue, the “(HO)2HSPM concentration” value [14] was 79 ± 7 nmol/g wet weight of tissue and the PUT concentration [14] was 0 ± 0 nmol/g wet weight of tissue. For the same compound, the SPD concentration [14] was 1044 ± 177 nmol/g wet weight of tissue, the SPM concentration [14] was 908 nmol/g wet weight of tissue and 908 ± 55 nmol/g wet weight of tissue and the “(HO)2DEHSPM Mesylate concentration” value [15] was 135 ± 3 nmol/g wet weight of tissue. For the same compound, the “(HO)2HSPM concentration” value [15] was 116 ± 15 nmol/g wet weight of tissue, the PUT concentration [15] was 0 ± 0 nmol/g wet weight of tissue and the SPD concentration [15] was 1108 ± 146 nmol/g wet weight of tissue. The SPM concentration [15] was 987 nmol/g wet weight of tissue and 987 ± 49 nmol/g wet weight of tissue, the “(HO)2DEHSPM Mesylate concentration” value [16] was 73 ± 11 nmol/g wet weight of tissue and the “(HO)2HSPM concentration” value [16] was 88 ± 5 nmol/g wet weight of tissue. For the same compound, the PUT concentration [16] was 0 ± 0 nmol/g wet weight of tissue, the SPD concentration [16] was 910 ±10 nmol/g wet weight of tissue and the SPM concentration [16] was 807 nmol/g wet weight of tissue and 807 ± 138 nmol/g wet weight of tissue. For the same compound, the “(HO)2DEHSPM Mesylate concentration” value [17] was 131 ± 27 nmol/g wet weight of tissue, the “(HO)2HSPM concentration” value [17] was 50 ± 6 nmol/g wet weight of tissue and the PUT concentration [17] was 36 ± 10 nmol/g wet weight of tissue. For the same compound, the SPD concentration [17] was 5717 ± 426 nmol/g wet weight of tissue, the SPM concentration [17] was 1108 nmol/g wet weight of tissue and 1108 ± 15 nmol/g wet weight of tissue and the “(HO)2DEHSPM Mesylate concentration” value [18] was 153 ± 11 nmol/g wet weight of tissue. For the same compound, the “(HO)2HSPM concentration” value [18] was 70 ± 2 nmol/g wet weight of tissue, the PUT concentration [18] was 57 ± 15 nmol/g wet weight of tissue and the SPD concentration [18] was 6460 ± 280 nmol/g wet weight of tissue. For the same compound, the SPM concentration [18] was 1333 nmol/g wet weight of tissue and 1333 ± 103 nmol/g wet weight of tissue, the “(HO)2DEHSPM Mesylate concentration” value [19] was 134 ± 14 nmol/g wet weight of tissue and the “(HO)2HSPM concentration” value [19] was 75 ± 4 nmol/g wet weight of tissue. The PUT concentration [19] was 31 ± 3 nmol/g wet weight of tissue, the SPD concentration [19] was 6147 ± 223 nmol/g wet weight of tissue and the SPM concentration [19] was 1273 ± 210 nmol/g wet weight of tissue.
